# Laboratory results published in patent US20070135490A1, “Phenetanolamine derivatives” (priority 2003, published 2007).
# Target: T1, human beta-2 receptor (Homo sapiens, UniProt P07550)
# T1 construct: expressed in transfected cells; host or cells: Chinese hamster ovary cells (whole cells or membranes derived from them)
# Assay: Chinese hamster ovary cells co-expressing the human receptor with a reporter gene, cAMP measurement in whole cells or membranes (Method 2)
# Type: cell-based
# Settings: CHO cells or membranes, read-out: pEC50 at the human beta-2 receptor (converted)
# Procedure: Potency of compounds of the invention at the human beta 2, 1 and 3 receptors was also determined using Chinese hamster ovary cells co-expressing the human receptor with a reporter gene. Studies were performed using either whole cells or membranes derived from those cells.
# The three beta-receptors are coupled via the Gs G-protein to cause a simulation of adenylate cyclase resulting in increased levels of cAMP in the cell. For direct cAMP measurements either membranes or cells have been used with either the HitHunter enzyme fragment complementation kit (DiscoveRx) or the FP^2 fluorescence polarisation kit (Perkin Elmer) to quantify the levels of cAMP present. These assays provide a measure of agonist potency and intrinsic activity of the compounds at the various receptors. […]
# In this assay the potency of compounds at the human beta-2 receptor is expressed as a pEC50 value. Compounds of examples 12-26, 28-50 and 52-64 had pEC50 values greather than 6. […] No result is available for the compound of example 51.
# T1 sequence (P07550 whole entry): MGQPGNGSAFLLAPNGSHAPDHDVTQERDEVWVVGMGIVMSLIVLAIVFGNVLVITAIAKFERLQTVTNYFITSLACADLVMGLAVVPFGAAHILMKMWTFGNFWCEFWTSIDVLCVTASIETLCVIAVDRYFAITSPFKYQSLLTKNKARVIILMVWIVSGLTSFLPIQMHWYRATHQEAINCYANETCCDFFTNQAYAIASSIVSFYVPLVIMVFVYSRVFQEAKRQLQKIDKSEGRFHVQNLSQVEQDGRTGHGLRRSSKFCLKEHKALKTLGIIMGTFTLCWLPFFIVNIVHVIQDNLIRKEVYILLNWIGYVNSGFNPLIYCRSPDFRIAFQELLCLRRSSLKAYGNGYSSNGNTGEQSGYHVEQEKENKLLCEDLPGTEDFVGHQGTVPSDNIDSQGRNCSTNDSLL
row,Structure (SMILES),EC50 [nM]
1,"NS(=O)(=O)c1cccc(CCCOCc2cccc(CCNC[C@H](O)c3ccc(O)c(CO)c3)c2)c1 [Example 56, Formic acid compound with 3-[3-({3-[2-({(2R)-2-hydroxy-2-[4-hydroxy-3-(hydroxymethyl)phenyl]ethyl}amino)ethyl]benzyl}oxy)propyl]benzenesulfonamide (1:1)]",< 1000
2,"OCc1cc([C@@H](O)CNCCc2cccc(COCCc3cccc(F)c3)c2)ccc1O [Example 39, Formic acid compound with 4-((1R)-2-{[2-(3-{[2-(3-fluorophenyl)ethoxy]methyl}phenyl)ethyl]amino}-1-hydroxyethyl)-2-(hydroxymethyl)phenol (1:1)]",< 1000
3,"O=S(=O)(c1ccc(CCCCOCc2cccc(CCNC[C@H](O)c3ccc(O)c(CO)c3)c2)cc1)C1CCCC1 [Example 29, Formic acid compound with 4-[(1R)-2-({2-[3-({4-[4-(cyclopentylsulfonyl)phenyl]butoxy}methyl)phenyl]ethyl}amino)-1-hydroxyethyl]-2-(hydroxymethyl)phenol (1:1)]",< 1000
4,"NC(=O)c1ccc(COCc2cccc(CCNC[C@H](O)c3ccc(O)c(CO)c3)c2)cc1 [Example 54, Formic acid compound with 4-[({3-[2-({(2R)-2-hydroxy-2-[4-hydroxy-3-(hydroxymethyl)phenyl]ethyl}amino)ethyl]benzyl}oxy)methyl]benzamide (1:1)]",< 1000
5,"NS(=O)(=O)c1cccc(CCCCOCc2cccc(CCNC[C@H](O)c3ccc(O)c(CO)c3)c2)c1 [Example 12, Formic acid compound with 3-[4-({3-[2-({(2R)-2-Hydroxy-2-[4-hydroxy-3-(hydroxymethyl)phenyl]ethyl}amino)ethyl]benzyl}oxy)butyl]benzenesulfonamide (1:1)]",< 1000
